# According to ChEMBL document CHEMBL1255337, “Entecavir exhibits inhibitory activity against human immunodeficiency virus under conditions of reduced viral challenge” (Antimicrob Agents Chemother, 2008):
# The source made the active and inactive calls. No cut-off for these calls is given here.
# Key:
# [1] = system: Human immunodeficiency virus 1; test: microbe, parasite or virus in culture; conditions: Human immunodeficiency virus 1, subtype B-ASM 044, PBMC
# Description: Antiviral activity against HIV1 subtype B-ASM 044 infected in 1 hr-pretreated PBMC cells assessed as inhibition of p24 antigen production measured on day 5 postinfection by ELISA
# [2] = system: Human immunodeficiency virus 1; type: functional, organism-based; conditions: Human immunodeficiency virus 1, NL4-3, MT2
# [3] = system: Human immunodeficiency virus 1; test: microbe, parasite or virus in culture; conditions: Human immunodeficiency virus 1, subtype B-SF-2, MT2
# Description: Antiviral activity against HIV1 subtype B-SF-2 infected in 1 hr-pretreated human MT2 cells assessed as inhibition of multicycle replication measured on day 5 postinfection by RT SPA
# [4] = system: Human immunodeficiency virus 1; test: microbe, parasite or virus in culture; conditions: Human immunodeficiency virus 1, subtype B-RF, MT2
# Description: Antiviral activity against HIV1 subtype B-RF infected in 1 hr-pretreated human MT2 cells assessed as inhibition of multicycle replication measured on day 5 postinfection by RT SPA
# [5] = system: Human immunodeficiency virus 1; test: microbe, parasite or virus in culture; conditions: Human immunodeficiency virus 1, subtype B-3B, MT2
# Description: Antiviral activity against HIV1 subtype B-3B infected in 1 hr-pretreated human MT2 cells assessed as inhibition of multicycle replication measured on day 5 postinfection by RT SPA
# [6] = system: Human immunodeficiency virus 1; test: microbe, parasite or virus in culture; conditions: Human immunodeficiency virus 1, NL4-3, MT2, 120 h
# Description: Antiviral activity against 0.005 MOI wild type HIV1 NL4-3 infected in human MT2 cells measured after 5 days by MTS assay
# [7] = system: Human immunodeficiency virus 1; test: microbe, parasite or virus in culture; conditions: Human immunodeficiency virus 1, NL4-3, MT2, 120 h; remark: listed apart in the source
# Description: Antiviral activity against 0.02 MOI wild type HIV1 NL4-3 infected in human MT2 cells measured after 5 days by RT SPA
# [8] = system: Human immunodeficiency virus 1; test: microbe, parasite or virus in culture; conditions: Human immunodeficiency virus 1, subtype B-HXB2, MT2
# Description: Antiviral activity against HIV1 subtype B-HXB2 infected in 1 hr-pretreated human MT2 cells assessed as inhibition of multicycle replication measured on day 5 postinfection by RT SPA
# [9] = system: Human immunodeficiency virus 1; test: microbe, parasite or virus in culture; conditions: Human immunodeficiency virus 1, NL4-3, MT2
# Description: Antiviral activity against 0.05 MOI wild type HIV1 NL4-3 infected in 2 hr-pretreated human MT2 cells measured after 5 days by MTS assay
# [10] = system: Human immunodeficiency virus 1; test: microbe, parasite or virus in culture; conditions: Human immunodeficiency virus 1, NL4-3, MT2; remark: listed apart in the source
# Description: Antiviral activity against 0.02 MOI wild type HIV1 NL4-3 infected in 2 hr-pretreated human MT2 cells measured after 5 days by RT SPA
# [11] = system: Human immunodeficiency virus 1; test: microbe, parasite or virus in culture; conditions: Human immunodeficiency virus 1, NL4-3, MT2; remark: listed apart in the source
# Description: Antiviral activity against 0.02 MOI wild type HIV1 NL4-3 infected in 2 hr-pretreated human MT2 cells measured after 5 days by MTS assay
# [12] = system: Human immunodeficiency virus 1; test: microbe, parasite or virus in culture; conditions: Human immunodeficiency virus 1, NL4-3, MT2, 120 h; remark: listed apart in the source
# Description: Antiviral activity against 0.01 MOI wild type HIV1 NL4-3 infected in human MT2 cells measured after 5 days by RT SPA
# [13] = system: Human immunodeficiency virus 1; test: microbe, parasite or virus in culture; conditions: Human immunodeficiency virus 1, NL4-3, MT2, 120 h; remark: listed apart in the source
# Description: Antiviral activity against 0.01 MOI wild type HIV1 NL4-3 infected in human MT2 cells measured after 5 days by MTS assay
# [14] = system: Human immunodeficiency virus 1; test: microbe, parasite or virus in culture; conditions: Human immunodeficiency virus 1, NL4-3, MT2, 120 h; remark: listed apart in the source
# Description: Antiviral activity against 0.02 MOI wild type HIV1 NL4-3 infected in human MT2 cells measured after 5 days by MTS assay
# [15] = system: Human immunodeficiency virus 1; test: microbe, parasite or virus in culture; conditions: Human immunodeficiency virus 1, NL4-3, MT2, 120 h; remark: listed apart in the source
# Description: Antiviral activity against 0.05 MOI wild type HIV1 NL4-3 infected in human MT2 cells measured after 5 days by RT SPA
# [16] = system: Human immunodeficiency virus 1; test: microbe, parasite or virus in culture; conditions: Human immunodeficiency virus 1, subtype B-LAI, MT2
# Description: Antiviral activity against HIV1 subtype B-LAI infected in 1 hr-pretreated human MT2 cells assessed as inhibition of multicycle replication measured on day 5 postinfection by RT SPA
# [17] = system: Human immunodeficiency virus 1; test: microbe, parasite or virus in culture; conditions: Human immunodeficiency virus 1, NL4-3, MT2; remark: listed apart in the source
# Description: Antiviral activity against 0.005 MOI wild type HIV1 NL4-3 infected in 2 hr-pretreated human MT2 cells measured after 5 days by RT SPA
# [18] = system: Human immunodeficiency virus 1; test: microbe, parasite or virus in culture; conditions: Human immunodeficiency virus 1, NL4-3, MT2; remark: listed apart in the source
# Description: Antiviral activity against 0.005 MOI wild type HIV1 NL4-3 infected in 2 hr-pretreated human MT2 cells measured after 5 days by MTS assay
# [19] = system: Human immunodeficiency virus 1; test: microbe, parasite or virus in culture; conditions: Human immunodeficiency virus 1, NL4-3, MT2; remark: listed apart in the source
# Description: Antiviral activity against 0.05 MOI wild type HIV1 NL4-3 infected in 2 hr-pretreated human MT2 cells measured after 5 days by RT SPA
# [20] = system: Human immunodeficiency virus 1; test: microbe, parasite or virus in culture; conditions: Human immunodeficiency virus 1, NL4-3, MT2, 120 h; remark: listed apart in the source
# Description: Antiviral activity against 0.05 MOI wild type HIV1 NL4-3 infected in human MT2 cells measured after 5 days by MTS assay
# [21] = system: Human immunodeficiency virus 1; test: microbe, parasite or virus in culture; conditions: Human immunodeficiency virus 1, NL-RLuc, MT2, 120 h
# Description: Antiviral activity against pseudotype HIV1 NL-RLuc infected in human MT2 cells measured on day 5 postinfection by luciferase reporter gene assay
# [22] = system: Human immunodeficiency virus 1; test: Antiviral activity against HIV1 3B infected in MOLT-4/3B cells assessed as inhibition of mature virus release measured after 4 days of infection by RT assay; type: functional, organism-based; conditions: Human immunodeficiency virus 1, 3B, MOLT-4, 96 h
# [23] = system: Human immunodeficiency virus 1; test: microbe, parasite or virus in culture; conditions: Human immunodeficiency virus 1, NL4-3, MT2; remark: listed apart in the source
# [24] = system: Human immunodeficiency virus 1; test: microbe, parasite or virus in culture; conditions: Human immunodeficiency virus 1, NL4-3, MT2, 120 h; remark: listed apart in the source
# Description: Antiviral activity against 0.005 MOI wild type HIV1 NL4-3 infected in human MT2 cells measured after 5 days by RT SPA
# [25] = system: Human immunodeficiency virus 1; test: microbe, parasite or virus in culture; conditions: Human immunodeficiency virus 1, subtype B-92US076, PBMC
# Description: Antiviral activity against HIV1 subtype B-92US076 infected in 1 hr-pretreated PBMC cells assessed as inhibition of p24 antigen production measured on day 5 postinfection by ELISA
# [26] = system: Human immunodeficiency virus 1; test: microbe, parasite or virus in culture; conditions: Human immunodeficiency virus 1, NL4-3, MT2; remark: listed apart in the source
# Description: Antiviral activity against 0.01 MOI wild type HIV1 NL4-3 infected in 2 hr-pretreated human MT2 cells measured after 5 days by MTS assay
# [27] = system: Human immunodeficiency virus 1; test: microbe, parasite or virus in culture; conditions: Human immunodeficiency virus 1, subtype B-NL4-3, MT2
# Description: Antiviral activity against HIV1 subtype B-NL4-3 infected in 1 hr-pretreated human MT2 cells assessed as inhibition of multicycle replication measured on day 5 postinfection by RT SPA
# [28] = system: Human immunodeficiency virus 1; test: microbe, parasite or virus in culture; conditions: Human immunodeficiency virus 1, subtype B-ASM 034, PBMC
# Description: Antiviral activity against HIV1 subtype B-ASM 034 infected in 1 hr-pretreated PBMC cells assessed as inhibition of p24 antigen production measured on day 5 postinfection by ELISA
# [29] = system: Human immunodeficiency virus 1; test: microbe, parasite or virus in culture; conditions: Human immunodeficiency virus 1, NL4-3, MT2; remark: listed apart in the source
# Description: Antiviral activity against 0.01 MOI wild type HIV1 NL4-3 infected in 2 hr-pretreated human MT2 cells measured after 5 days by RT SPA
# [30] = system: Human immunodeficiency virus 1; test: microbe, parasite or virus in culture; conditions: Human immunodeficiency virus 1, subtype B-93US143, PBMC
# Description: Antiviral activity against HIV1 subtype B-93US143 infected in 1 hr-pretreated PBMC cells assessed as inhibition of p24 antigen production measured on day 5 postinfection by ELISA
# [31] = system: Human immunodeficiency virus 1; type: functional, organism-based; conditions: NL4-3, 2.5 uM
# [32] = system: Human immunodeficiency virus 1; test: Antiviral activity against HIV1 NL4-3 harboring M184L mutant RT infected in human MT2 cellssmeasured after 7 passages on day 34 postinfection; type: functional, organism-based; conditions: Human immunodeficiency virus 1, NL4-3, MT2
# CEM-SS = test: Cytotoxicity against human CEM-SS cells after 10 days by MTT assay; type: cell-based; conditions: 240 h
# [33] = system: Human immunodeficiency virus 1; test: Antiviral activity against HIV1 infected in human CEM-SS cells after 10 days by MTT assay; type: functional, organism-based; conditions: Human immunodeficiency virus 1, CEM-SS, 240 h
# [34] = system: Human immunodeficiency virus 1; test: Antiviral activity against pseudotype HIV1 LAI-Luc infected in human PBMC measured on day 3 postinfection by luciferase reporter gene assay; type: functional, organism-based; conditions: Human immunodeficiency virus 1, LAI-Luc, 72 h
# [35] = system: Human immunodeficiency virus 1; test: Antiviral activity against HIV1 subtype B-NL4-3 infected in 3 hrs pretreated human MT2 cells assessed as inhibition of multicycle replication measured on day 5 postinfection by RT SPA; type: functional, organism-based; conditions: Human immunodeficiency virus 1, subtype B-NL4-3, MT2
# [36] = system: Human immunodeficiency virus 1; test: Antiviral activity against pseudotype HIV1 LAI-Luc infected in CD4-positive human HeLa cells measured on day 3 postinfection by luciferase reporter gene assay; type: functional, organism-based; conditions: Human immunodeficiency virus 1, LAI-Luc, 72 h
# [37] = system: Human immunodeficiency virus 1; test: Antiviral activity against pseudotype HIV1 NL-Luc infected in 24 hrs pretreated HEK293 cells by phenosense assay; type: functional, organism-based; conditions: Human immunodeficiency virus 1, NL-Luc
# [38] = system: Human immunodeficiency virus 1; test: Antiviral activity against HIV1 subtype B-NL4-3 infected in 2 hrs pretreated human MT2 cells assessed as inhibition of multicycle replication measured on day 5 postinfection by RT SPA; type: functional, organism-based; conditions: Human immunodeficiency virus 1, subtype B-NL4-3, MT2
# [39] = system: Human immunodeficiency virus; test: Antiviral activity against HIV infected in CD4+ lymphocyte by fluorescence-activated cell sorter assay; type: functional, organism-based; conditions: Human immunodeficiency virus 1
# Hepatitis B virus = test: Antiviral activity against Hepatitis B virus; type: functional, organism-based
# [40] = system: Human immunodeficiency virus 1; test: Antiviral activity against 0.006 MOI HIV1 NL4-3 infected in 1 hr-pretreated human MT2 cells measured after 5 days by RT SPA; type: functional, organism-based; conditions: Human immunodeficiency virus 1, NL4-3, MT2
# [41] = Cmax in human at 1 mg, po; conditions: in vivo
# [42] = system: Human immunodeficiency virus 1; type: functional, organism-based; conditions: Human immunodeficiency virus 1, NL4-3, MT2; remark: listed apart in the source
# [43] = system: Human immunodeficiency virus 1; test: Antiviral activity against 0.005 MOI HIV1 NL4-3 harboring wild type RT infected in human MT2 cells by phenosense assay; type: functional, organism-based; conditions: Human immunodeficiency virus 1, NL4-3, MT2
# [44] = Cmax in human blood; type: ADME, organism-based
# [45] = system: Human immunodeficiency virus 1; test: Antiviral activity against pseudotype HIV1 LAI-Luc infected in human MT2 cells measured on day 3 postinfection by luciferase reporter gene assay; type: functional, organism-based; conditions: Human immunodeficiency virus 1, LAI-Luc, MT2, 72 h
# [46] = system: Human immunodeficiency virus 1; test: Antiviral activity against 0.006 MOI HIV1 NL4-3 infected in human MT2 cells measured after 5 days by RT SPA; type: functional, organism-based; conditions: Human immunodeficiency virus 1, NL4-3, MT2, 120 h
# [47] = system: Human immunodeficiency virus 1; test: Antiviral activity against 0.006 MOI HIV1 NL4-3 infected in 2 hr-pretreated human MT2 cells measured after 5 days by RT SPA; type: functional, organism-based; conditions: Human immunodeficiency virus 1, NL4-3, MT2
structure (smiles),measurement,setting,value
Cc1cn([C@H]2C[C@H](N=[N+]=[N-])[C@@H](CO)O2)c(=O)[nH]c1=O [ZIDOVUDINE],EC50,[1],0.016 µM
same,EC50,[2],0.005 µM
same,EC50,[3],0.0063 µM
same,EC50,[4],0.0029 µM
same,EC50,[5],0.0012 µM
same,EC50,[6],0.027 µM
same,EC50,[7],0.018 µM
same,EC50,[8],0.014 µM
same,EC50,[9],0.302 µM
same,EC50,[10],0.209 µM
same,EC50,[11],0.223 µM
same,EC50,[12],0.008 µM
same,EC50,[13],0.038 µM
same,EC50,[14],0.054 µM
same,EC50,[15],0.043 µM
same,EC50,[16],0.0038 µM
same,EC50,[17],0.051 µM
same,EC50,[18],0.117 µM
same,EC50,[19],0.249 µM
same,EC50,[20],0.087 µM
same,EC50,[21],0.016 µM
same,EC50,[22],> 10 µM
same,EC50,[23],0.01 µM
same,EC50,[24],0.01 µM
same,EC50,[25],0.008 µM
same,EC50,[26],0.144 µM
same,EC50,[27],0.0049 µM
same,EC50,[28],0.018 µM
same,EC50,[29],0.075 µM
same,EC50,[30],0.034 µM
Cc1c(O)cccc1C(=O)N[C@@H](CSc1ccccc1)[C@H](O)CN1C[C@H]2CCCC[C@H]2C[C@H]1C(=O)NC(C)(C)C [NELFINAVIR],EC50,[22],0.029 µM
Nc1ccn([C@@H]2CS[C@H](CO)O2)c(=O)n1 [LAMIVUDINE],EC50,[1],0.04 µM
same,EC50,[2],> 10 µM
same,EC50,[3],0.183 µM
same,EC50,[4],0.105 µM
same,EC50,[5],0.047 µM
same,EC50,[6],0.219 µM
same,EC50,[7],0.086 µM
same,EC50,[8],0.202 µM
same,EC50,[9],3.25 µM
same,EC50,[10],1.99 µM
same,EC50,[11],2.44 µM
same,EC50,[12],0.063 µM
same,EC50,[13],0.554 µM
same,EC50,[14],0.969 µM
same,EC50,[15],0.372 µM
same,EC50,[16],0.182 µM
same,EC50,[17],0.462 µM
same,EC50,[18],1.26 µM
same,EC50,[19],2.47 µM
same,EC50,[20],0.927 µM
same,EC50,[21],1.14 µM
same,EC50,[22],> 100 µM
same,EC50,[23],0.04 µM
same,Activity,[31],inactive
same,EC50,[24],0.04 µM
same,EC50,[25],0.081 µM
same,EC50,[26],1.68 µM
same,EC50,[27],0.171 µM
same,EC50,[28],0.071 µM
same,EC50,[29],0.667 µM
same,EC50,[30],0.85 µM
O=C1Nc2ccc(Cl)cc2[C@@](C#CC2CC2)(C(F)(F)F)O1 [EFAVIRENZ],EC50,[2],0.0002 µM
C=C1[C@H](CO)[C@@H](O)C[C@@H]1n1cnc2c(=O)[nH]c(N)nc21.O [ENTECAVIR],EC50,[32],> 10 µM
same,EC50,[1],0.026 µM
same,CC50,CEM-SS,21 µM
same,EC50,[2],> 10 µM
same,EC50,[3],0.526 µM
same,EC50,[4],0.839 µM
same,EC50,[33],> 10 µM
same,EC50,[5],0.081 µM
same,EC50,[34],> 2.5 µM
same,EC50,[35],> 10 µM
same,EC50,[6],1.36 µM
same,EC50,[7],0.449 µM
same,EC50,[8],1.03 µM
same,EC50,[36],> 4 µM
same,EC50,[9],> 10 µM
same,EC50,[37],30.6 µM
same,EC50,[10],> 10000 µM
same,EC50,[11],> 10 µM
same,EC50,[12],0.095 µM
same,EC50,[13],> 2.9 µM
same,EC50,[14],> 6.35 µM
same,EC50,[15],6.45 µM
same,EC50,[16],0.071 µM
same,EC50,[38],1.4 µM
same,EC50,[17],3.62 µM
same,EC50,[18],> 10 µM
same,EC50,[39],0.0001 µM
same,EC50,Hepatitis B virus,0.004 µM
same,EC50,[40],0.287 µM
same,Cmax,[41],30 nM
same,EC50,[19],> 10000 µM
same,EC50,[20],> 10 µM
same,EC50,[21],1.3 µM
same,EC50,[22],> 38 µM
same,EC50,[23],0.056 µM
same,Activity,[31],Active
same,EC50,[42],> 100 µM
same,EC50,[24],0.056 µM
same,EC50,[25],0.062 µM
same,EC50,[43],30.6 µM
same,EC50,[26],> 9.69 µM
same,Cmax,[44],30 nM
same,EC50,[27],0.085 µM
same,EC50,[45],> 1.2 µM
same,EC50,[46],0.151 µM
same,EC50,[28],0.109 µM
same,EC50,[29],9.57 µM
same,EC50,[30],1.75 µM
same,EC50,[47],13.5 µM
